Assay [1] concerns the target T1, Human C5 (Homo sapiens, UniProt P01031).
T1 construct: purchased Complement Technology
Nature of the assay: Surface plasmon resonance (SPR), immobilized human C5 (Example 9, Table 18). Format: binding. An excerpt:
Morrison and Boyd in “Organic Chemistry”, 6th edition, Prentice Hall (1992)] and validated for proper structure by mass spectrometry.
A general note: SPR reads the build-up and loss of mass on a sensor chip optically.

Assay [2] has as its target T2, purified human C5 (Homo sapiens, UniProt P01031). Nature of the assay: Red blood cell (RBC) hemolysis assay, optical, absorbance 412 nm (Example 10, Table 19). The settings on record: antibody-sensitized sheep erythrocytes, […] human C5 depleted sera, 0.5 nM purified human C5, absorbance 412 nm; read-out: RBC Hemolysis IC50. It counts as cell-based.
Assay [3] has as its target T2, purified human C5. The experiment in a line: Red blood cell hemolysis assay, optical, absorbance 412 nm (Example 3, Table 6). It counts as cell-based. Conditions: antibody-sensitized sheep erythrocytes, 1.5% human C5 depleted sera, 0.5 nM human C5; average where replicates.
Experimental: Experiments were carried out using a red blood cell (RBC) hemolysis assay to assess compound inhibition of RBC lysis. […] The assay was carried out using 1.5% human C5 depleted sera and 0.5 nM purified human C5.
GVB++ buffer (Complement Technology, Tyler, Tex.) was heated at 37° C. for a minimum of 20 minutes. The human C5 depleted sera and purified human C5 were rapidly thawed at 37° C. and then stored on ice or wet ice, respectively. The compound stock (10 mM, DMSO) was serially diluted in 100% DMSO to obtain ten 6-fold dilutions before addition of GVB++. Sera dilution was prepared by adding 5 mL of GVB++ to a 15 mL conical tube, removing 600 μL of the GVB++ and adding 600 μL of the 100% sera. The tube was mixed by inverting three times. A volume of 25 μL of the diluted sera was added to each well so that the final concentration of sera in the well was 1.5%. C5 dilution was prepared by adding 5 mL of GVB++ to a 15 mL conical tube, removing 4 μL of the GVB++ and adding 4 μL of the C5 stock. The tube was mixed by inverting three times. A volume of 25 μL was added to each well so that the final amount of C5 was 0.5 nM in each well. The antibody-sensitized sheep erythrocytes (EAs) were centrifuged at 1,000× gravity at 22° C. for 3 minutes. The supernatant was pipetted off without disrupting the pellet. The pellet was then resuspended in GVB++ with the same volume removed. Resuspended EAs were mixed by gently inverting the tube.
Five controls were run on each plate: (1) EAs only=100 μL EAs+50 μL GVB++ with 4% DMSO+50 μL GVB++; (2) EA+Sera=100 μL EAs+50 μL GVB++ with 4% DMSO+25 μL Sera dilution+25 μL GVB++; (3) EA+C5=100 μL EAs+50 μL GVB++ with 4% DMSO+25 μL C5 dilution+25 μL GVB++; (4) EA+Sera+C5=100 μL EAs+50 μL GVB++ with 4% DMSO+25 μL Sera dilution+25 μL C5; (5) GVB++ Only=200 μL GVB++. Other wells included: GVB++ with 4% DMSO=20 μL DMSO+480 μL GVB++. All samples were analyzed in duplicate. The compound dose response curve was generated using samples prepared with 100 μL EA+50 μL compound dilution+25 μL C5 dilution+25 μL sera dilution.
Test plates were prepared by adding 100 μL of EAs, 50 μL of compound dilution, 25 μL of sera dilution, and 25 μL of C5 dilution to individual wells of a 96-well tissue culture-treated clear microtitre plate (USA Scientific, Ocala, Fla.) and resuspending by pipetting up and down three times. The samples were incubated at 37° C. for one hour. At the completion of the incubation, the plates were centrifuged at 1,000× gravity for 3 minutes. 100 μl of supernatant were transferred to a new plate and the absorbance was read at 412 nm. Data was fit with a log-logit formula producing a dose-response curve and IC50.
“IC50” refers to the half maximal inhibitory concentration, where the value is the concentration of the inhibitor needed to reduce red blood cell hemolysis by half. Where replicate analysis was conducted, average IC50 values are provided along with standard deviation (SD) values.
Assay [4] addresses T1, Human C5. Nature of the assay: Surface plasmon resonance (SPR), compounds on immobilized human C5 (Example 2, Table 5). It counts as binding. Conditions: lowest value where a range of compound concentrations were analyzed.
The mark [5] stands for this setting: SPR, human C5 immobilized, read-out: equilibrium dissociation constant for interaction with C5.
The mark [6] stands for this setting: immobilized human C5, equilibrium dissociation constant, read-out: SPR C5 EQ KD.

In general, IC50 refers to the concentration that inhibits the measured activity by half.

T2 sequence (P01031 19-1676): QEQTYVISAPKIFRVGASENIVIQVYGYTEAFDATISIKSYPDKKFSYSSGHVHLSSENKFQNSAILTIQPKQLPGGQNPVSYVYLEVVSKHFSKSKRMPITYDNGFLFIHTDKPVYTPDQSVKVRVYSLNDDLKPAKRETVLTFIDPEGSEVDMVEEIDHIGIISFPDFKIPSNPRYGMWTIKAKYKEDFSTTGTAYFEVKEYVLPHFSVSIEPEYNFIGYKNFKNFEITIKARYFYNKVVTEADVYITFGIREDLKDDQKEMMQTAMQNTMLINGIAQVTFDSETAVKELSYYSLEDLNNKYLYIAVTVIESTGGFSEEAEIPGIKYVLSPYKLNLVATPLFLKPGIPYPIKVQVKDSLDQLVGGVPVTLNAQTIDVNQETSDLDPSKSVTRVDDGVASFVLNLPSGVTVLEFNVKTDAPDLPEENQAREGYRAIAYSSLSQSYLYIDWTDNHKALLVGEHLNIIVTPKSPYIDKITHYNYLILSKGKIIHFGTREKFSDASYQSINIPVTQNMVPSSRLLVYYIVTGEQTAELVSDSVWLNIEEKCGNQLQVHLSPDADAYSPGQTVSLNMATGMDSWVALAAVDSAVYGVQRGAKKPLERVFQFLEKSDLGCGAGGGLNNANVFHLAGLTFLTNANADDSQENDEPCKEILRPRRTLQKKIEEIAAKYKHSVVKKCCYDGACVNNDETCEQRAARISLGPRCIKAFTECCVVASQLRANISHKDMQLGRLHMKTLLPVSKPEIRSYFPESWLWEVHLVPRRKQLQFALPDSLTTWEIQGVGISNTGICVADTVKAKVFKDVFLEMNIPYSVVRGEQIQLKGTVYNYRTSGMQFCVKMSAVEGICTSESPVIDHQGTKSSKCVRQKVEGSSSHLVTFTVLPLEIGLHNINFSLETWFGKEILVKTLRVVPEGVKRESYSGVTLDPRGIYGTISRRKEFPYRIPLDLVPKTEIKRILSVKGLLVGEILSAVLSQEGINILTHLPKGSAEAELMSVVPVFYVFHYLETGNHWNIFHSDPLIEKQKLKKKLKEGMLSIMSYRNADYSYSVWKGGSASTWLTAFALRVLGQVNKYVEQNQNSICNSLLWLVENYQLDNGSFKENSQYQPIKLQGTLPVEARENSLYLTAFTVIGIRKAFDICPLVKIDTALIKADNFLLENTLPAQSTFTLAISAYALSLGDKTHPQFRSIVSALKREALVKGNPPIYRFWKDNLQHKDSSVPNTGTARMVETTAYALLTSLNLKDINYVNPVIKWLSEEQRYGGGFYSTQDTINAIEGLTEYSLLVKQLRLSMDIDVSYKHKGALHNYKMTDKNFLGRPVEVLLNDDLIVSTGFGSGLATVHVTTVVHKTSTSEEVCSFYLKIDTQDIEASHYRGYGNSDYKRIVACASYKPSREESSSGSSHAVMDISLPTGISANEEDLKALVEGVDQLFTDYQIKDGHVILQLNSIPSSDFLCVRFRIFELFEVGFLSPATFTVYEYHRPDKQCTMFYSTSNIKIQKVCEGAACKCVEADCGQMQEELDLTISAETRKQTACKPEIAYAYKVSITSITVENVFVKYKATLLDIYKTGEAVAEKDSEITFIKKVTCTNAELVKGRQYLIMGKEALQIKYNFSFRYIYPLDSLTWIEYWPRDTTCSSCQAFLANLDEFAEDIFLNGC
T1 sequence (P01031 19-1676): as above

As for `COc1ccc(NC(=O)NCc2cccc3c2ccn3Cc2ccncc2)cc1OCCCC(C)C` [Compound C5INH-0518], the results for the Kd at Human C5 [1] (setting [5]) and on Human C5 [1] (setting [6]) were under 20 nM and 14 nM, respectively. In addition, the IC50 on purified human C5 [2] worked out at 300 nM.
With `COc1ccc(NC(=O)NCc2cccc3c2ccn3CC2CCCN2C)cc1OCCCC(C)C` (centres unmarked) [Compound C5INH-0519], the Kd on Human C5 [1] (setting [5]) is under 20 nM; at Human C5 [1] (setting [6]), 9.3 nM. Also, on purified human C5 [2], the half-inhibitory concentration (IC50) came out at 96.7 nM.
As to `COc1ccc(NC(=O)NCc2cccc3c2ccn3CCCN(C)C)cc1OCCCC(C)C` [Compound C5INH-0524], the Kd at Human C5 [1] (setting [6]) was found to be 27 nM. Also, at purified human C5 [2], the IC50 was found to be 65 nM.
For `COc1ccc(NC(=O)NCc2ccnc3c2ccn3CC(=O)N2CCN(C)CC2)cc1OCCCC(C)C` [Compound C5INH-0526] the same measures were 27 nM and 31.5 nM.
For the molecule `COc1cc(CN(C)C(C)=O)c(NC(=O)NCc2ccnc3[nH]ccc23)cc1OCCCC(C)C` [Compound C5INH-0527], the Kd on Human C5 [1] (setting [6]) is 650 nM. In addition, the IC50 on purified human C5 [2] came to 2270 nM.
For `COc1ccc(NCCCN2CCOCC2)cc1CNC(=O)Nc1ccc(OC)c(OCCCC(C)C)c1` [Compound C5INH-0534] the same measures were 260 nM and 1110 nM.
As to `COc1ccc(NCCCN(C)C)cc1CNC(=O)Nc1ccc(OC)c(OCCCC(C)C)c1` [Compound C5INH-0535], the Kd on Human C5 [1] (setting [6]) came out at 260 nM. Also, the concentration for half-maximal inhibition (IC50) at purified human C5 [2] was found to be 1040 nM.
Consider `COc1ccc(NC(=O)NCc2cccc3c2ncn3CCN(C)C)cc1OCCCC(C)C` [Compound C5INH-0536], for which the Kd on Human C5 [1] (setting [6]) was 32 nM. Moreover, at purified human C5 [2], the IC50 worked out at 175 nM.
With `COc1ccc(NC(=O)NCc2cccc3[nH]ccc23)cc1OCCCC(C)C` [Compound C5INH-0537], at Human C5 [1] (setting [6]), the Kd came out at 81 nM. Also, the concentration for half-maximal inhibition (IC50) on purified human C5 [2] is 138 nM.
For `COc1ccc(NC(=O)NCc2ccnc3c2ccn3CC(=O)N(C)C)cc1OCCCC(C)C` [Compound C5INH-0538] the same measures were 79 nM and 62.1 nM.
For `COc1cc(CCCCN(C)C)c(NC(=O)N[C@@H](CO)c2ccccc2OC)cc1OCCCC(C)C` [Compound C5INH-0539] the same measures were 430 nM and 617 nM.
On to `COc1ccc(NC(=O)NCc2ccnc3c2ccn3CCCN)cc1OCCCC(C)C` [Compound C5INH-0544], for which, on Human C5 [1] (setting [6]), the Kd came out at 210 nM. For the same molecule, on purified human C5 [2], the IC50 is 130 nM.
For `COc1ccc(NC(=O)NCc2ccnc3c2ccn3CC2CCCN2C)cc1OCCCC(C)C` (centres unmarked) [Compound C5INH-0545], on Human C5 [1] (setting [6]), the Kd is 31 nM. For the same molecule, at purified human C5 [2], the concentration for half-maximal inhibition (IC50) stood at 89.5 nM.
Consider `COc1cc(CNC(C)=O)c(NC(=O)NCc2ccnc3c2ccn3CCCN(C)C)cc1OCCCC(C)C` [Compound C5INH-0547], for which the Kd at Human C5 [1] (setting [6]) is 42 nM. Besides, the IC50 on purified human C5 [2] came out at 287 nM.
For `COc1ccc(NC(=O)NC(CO)c2ccc(F)cc2)cc1OCCCC(C)C` (centres unmarked) [SM0020], the IC50 at purified human C5 [3] was determined as 478 nM.
Take `COc1cccc(C(CO)NC(=O)Nc2ccc(OC)c(OCCCC(C)C)c2)c1` (centres unmarked) [SM0028]: at purified human C5 [3], the half-inhibitory concentration (IC50) was found to be 896 nM.
For `COc1ccc(CNC(=O)Nc2ccc(OC)c(OCCCC(C)C)c2)cc1` [SM0041], the IC50 on purified human C5 [3] was found to be 1800 nM.
The molecule `COc1ccc(NC(=O)NCc2ccc(Br)cc2)cc1OCCCC(C)C` [SM0089] displayed a Kd at Human C5 [4] of 3100 nM.
The same measure, in the same setting: under `COc1ccc(NC(=O)NCc2cncnc2)cc1OCCCC(C)C` [SM0090] stands 2100 nM; under `COc1ccc(NC(=O)N[C@@H](CO)C(C)(C)C)cc1OCCCC(C)C` [SM0091], 990 nM; under `COc1ccc(NC(=O)NC(CO)Cc2ccccc2)cc1OCCCC(C)C` (centres unmarked) [SM0092], 540 nM.
Turning to `CNC(=O)[C@H](NC(=O)Nc1ccc(OC)c(OCCCC(C)C)c1)c1ccccc1` [SM0093], at Human C5 [4], the Kd is 240 nM.
`COc1ccc(NC(=O)N[C@@H](CO)c2ccccc2)cc1OCCN1CCC(O)CC1` [SM0094] registered a Kd at Human C5 [4] of 380 nM.
Regarding `COc1ccc(NC(=O)N[C@@H](CO)c2ccccc2)cc1OCc1ccccn1` [SM0095], the Kd at Human C5 [4] came to 1600 nM.
Turning to `CCCCn1ncc2ccc(NC(=O)N[C@@H](CO)c3ccccc3)cc21` [SM0096, 1-(1-butylindazol-6-yl)-3-[(1R)-2-hydroxy-1-phenyl-ethyl]urea], the Kd at Human C5 [4] is 2100 nM.
The molecule `COc1ccc(NC(=O)NC2CCCCC2O)cc1OCCCC(C)C` (centres unmarked) [SM0097] yielded a Kd on Human C5 [4] of 2200 nM.
On Human C5 [4], `COc1ccc(NC(=O)N[C@@H](CO)c2ccccc2)cc1OCc1ccncc1` [SM0098] yielded a Kd of 3800 nM.
Turning to `O=C(Nc1ccc2c(c1)OC(F)(F)O2)N[C@@H](CO)c1ccccc1` [SM0099], at Human C5 [4], the Kd turned out to be 5700 nM.
Regarding `COc1ccc(NC(=O)NCc2ccccc2CN(C)C)cc1OCCCC(C)C` [SM0100], on Human C5 [4], the Kd is 120 nM.
Still for that read-out and setting: as for `COc1ccc(NC(=O)N[C@@H](CO)c2ccccc2)cc1OCCC1CC1` [SM0101], the figure is 150 nM; as for `COc1ccc(NC(=O)N[C@@H](C(N)=O)c2ccccc2)cc1OCCCC(C)C` [SM0102], 1700 nM.
Consider `COc1ccc(NC(=O)N[C@H]2c3ccccc3C[C@@H]2O)cc1OCCCC(C)C` [SM0103], for which the Kd at Human C5 [4] is 1800 nM.
As to `COc1ccc(NC(=O)N[C@@H](CO)c2ccccc2)cc1OCCN(C)C` [SM0105, 1-[3-[2-(dimethylamino)ethoxy]-4-methoxy-phenyl]-3-[(1R)-2-hydroxy-1-phenyl-ethyl]urea], at Human C5 [4], the Kd is 2600 nM.
The same measure, in the same setting: as for `COc1ccc(NC(=O)NC(c2ccccc2F)[C@@H](O)CO)cc1OCCCC(C)C` (some centres unmarked) [SM0106], the figure is 2700 nM; as for `COc1ccc(NC(=O)N[C@@H](C)c2ccccc2)cc1OCC(C)(C)N(C)C` [SM0107], 3200 nM; as for `COc1ccc(NC(=O)N[C@@H](C)c2ccc(Br)cc2)cc1OCCCC(C)C` [SM0108], 3200 nM.
Same read-out and setting: as for `COc1ccc(NC(=O)N(C)CCO)cc1OCCCC(C)C` [SM0109], the figure is 3800 nM; as for `CCCOc1cc(NC(=O)O[C@@H](C)c2ccccc2)ccc1OC` [SM0110], 3900 nM.
Turning to `COc1ccc(NC(=O)NCC2CCC(F)(F)CC2)cc1OCCCC(C)C` [SM0111], the Kd at Human C5 [4] worked out at 4700 nM.
On to `CCCCCCOc1ccc(NC(=O)N[C@@H](CO)c2ccccc2)cc1` [SM0112], for which, at Human C5 [4], the Kd came to 5500 nM.
Consider `COc1ccc(NC(=O)NCc2ccc(S(C)(=O)=O)cc2)cc1OCCCC(C)C` [SM0113], for which the Kd on Human C5 [4] came out at 601 nM.
On the same count and under the same terms, as for `COc1ccc(NC(=O)N[C@@H](CO)c2ccccc2)cc1OCc1cncnc1` [SM0114, 1-[(1R)-2-hydroxy-1-phenyl-ethyl]-3-[4-methoxy-3-(pyrimidin-5-ylmethoxy)phenyl] urea], the figure is 6400 nM; as for `COc1ccc(NC(=O)N[C@@H](CO)c2ccccc2)cc1OCCN1CCN(C)CC1` [SM0115], 6700 nM.
Same read-out and setting: under `CCCCN(C)C(=O)c1cccc(NC(=O)N[C@@H](CO)c2ccccc2)c1` [SM0116, N-butyl-3-[[(1R)-2-hydroxy-1-phenyl-ethyl]carbamoylamino]-N-methyl-benzamide] stands 690 nM.
`COc1ccc(NC(=O)NCCc2ccccc2)cc1OCCCC(C)C` [SM0117] yielded a Kd at Human C5 [4] of 7600 nM.
`COc1ccc(NC(=O)N[C@H](CCO)c2ccccc2)cc1OCCCC(C)C` [SM0118] came in with a Kd at Human C5 [4] of 8100 nM.
Turning to `COc1ccc(NC(=O)N[C@@H](CO)c2ccccc2)cc1OCCCC#N` [SM0119], the Kd on Human C5 [4] is 830 nM.
Take `COC[C@H](NC(=O)Nc1ccc(OC)c(OCCCC(C)C)c1)c1ccccc1` [SM0120]: on Human C5 [4], the Kd stood at 9500 nM.
On the same count and under the same terms, under `COc1ccc(NC(=O)NC(CN(C)C)c2ccccc2)cc1OCCCC(C)C` (centres unmarked) [SM0121] stands 9500 nM.

(Values after patent US20230115176A1 (Ra Pharmaceuticals, Inc., priority 2019, published 2023).)
